# Test system: EGFR and cMET co-expressed tumor cell lines (A431, A549, MDA-MB-468, MKN-45, NCI-H441, NCI-H1975)
# Assay: Binding activity of parent mAbs by flow cytometry
# Settings: flow cytometry on tumor cell lines, FIGS. 1A-1F, Table 5; compared with zalutumumab (zalu) or cetuximab
# Method: EGFR and cMET co-expressed tumor cell lines including A431 (ATCC® CRL-1555), A549 (ATCC® CCL-185, Provided by Procell), MDA-MB-468 (ATCC® HTB-132, Provided by Procell), MKN-45 (CL-0292, Provided by Procell), NCI-H441 (ATCC® HTB-174, Provided by COBIOER), NCI-H1975 (ATCC® CRL-5908, Provided by Procell) were selected for evaluating antibody binding activity by flow cytometry.
# A431 was cultured with DMEM medium (Gibco, Cat #C11995500BT) containing 10% FBS. MDA-MB-468, MKN-45, NCI-H441 and NCI-H1975 were cultured with RPMI 1640 medium (Gibco, Cat #11875093) containing 10% FBS. A549 was cultured with F12K medium (Gibco, Cat #21127030) containing 10% FBS. Each antibody was incubated with different cell lines (1×10^5 cells/well) for 30 min in 0.2 mL FACS buffer (1×PBS with 0.1% BSA) at 4° C. After wash, cells were incubated with 100 μL PE-conjugated anti human Fc (Abcam, Ab98596, 1:500 dilution) for 30 min at 4° C. After wash with PBS, cells were resuspended in FACS buffer and analyzed by flow cytometer (Beckman, CytoFLEX).
row,Substance,binding activity / affinity of parent EGFR mAbs (summary)
1,Nectitumumab: parent EGFR mAb; sequences in Table 2 as Necitumumab [reference compound],"Stronger affinity than zalu,"
2,Nimotuzumab: parent EGFR mAb; sequences in Table 2 [reference compound],"Lower affinity than zalutumumab, no significant"
3,Panitumumab: parent EGFR mAb; sequences in Table 2 [reference compound],"Stronger affinity than cetuximab, binding remains"

# — patent US20250381289A1, “EGFR AND C-MET BISPECIFIC BINDING AGENTS, CONJUGATES THEREOF AND METHODS OF USING THE SAME” (GENMAB A/S, priority 2024, published 2025)
